From patent EP0550007A2, “Eseroline derivatives having anticholinesterase activity, a process for their preparation and pharmaceutical compositions containing them” (priority 1991, dated 1993)

Assays:
[1] = antagonist effect on the stimulating effect of scopolamine (motor activity), ESE series; format: in vivo; conditions: scopolamine at the dose of 1 mg/kg
Protocol: This is countered by the oral administration of 2.5 mg of ESE001, ESE002, ESE003, ESE004.

[2] = antagonist activity against the stimulating effect of an anticholinergic substance (scopolamine); format: in vivo, mice SWISS; conditions: scopolamine subcutaneously injected, 1mg/kg, mice
Protocol: As the central anticholinergic stimulating agent the scopolamine was used subcutaneously injected to groups of 10 mice SWISS ([…]) at the dose of 1mg/kg.
At this dose the substance under question caused in all the animals a marked increase (80-100%) of the spontaneous motility, evaluated according to the above described method .

mouse [3] = test: acute toxicity, oral LD50 in the mouse; conditions: oral, suspension in 2% carboxymethylcellulose, observation period 7 days
Excerpt: The mouse was used (Swiss strain having the average weight of the male mice being 26 g and 22 g that of the female mice: 5+5 animals per dose, observation period: 7days) The oral LD50 (suspension in 2% carboxymethylcellulose) were reported hereinbelow: Tab.2

[4] = effect on the succinylcholine curarization duration (corneal reflex); format: in vivo; conditions: i.v. administration of 0.6 mg/kg, rabbit; compared with physostigmine
mouse [5] = test: spontaneous motility (Dews' method modified according to Carminati); format: in vivo, mouse (SWISS strain)
Excerpt: The Dews' method was utilized, as modified according to Carminati (Arch. Int. Pharmacodyn. et Thér. 181, 68,1969).

[6] = test system: acetylcholinesterase activity (AchE); test: in vivo anticholinesterase activity (blood and brain, Ellman colorimetric method); set-up: species or system Wistar male rats; conditions: rats, oral, 1.5 to 4 mg/kg; sacrificed after 20, 60 and 120 minutes
acetylcholinesterase activity (AchE), sequence (P37136 32-574 limits assumed): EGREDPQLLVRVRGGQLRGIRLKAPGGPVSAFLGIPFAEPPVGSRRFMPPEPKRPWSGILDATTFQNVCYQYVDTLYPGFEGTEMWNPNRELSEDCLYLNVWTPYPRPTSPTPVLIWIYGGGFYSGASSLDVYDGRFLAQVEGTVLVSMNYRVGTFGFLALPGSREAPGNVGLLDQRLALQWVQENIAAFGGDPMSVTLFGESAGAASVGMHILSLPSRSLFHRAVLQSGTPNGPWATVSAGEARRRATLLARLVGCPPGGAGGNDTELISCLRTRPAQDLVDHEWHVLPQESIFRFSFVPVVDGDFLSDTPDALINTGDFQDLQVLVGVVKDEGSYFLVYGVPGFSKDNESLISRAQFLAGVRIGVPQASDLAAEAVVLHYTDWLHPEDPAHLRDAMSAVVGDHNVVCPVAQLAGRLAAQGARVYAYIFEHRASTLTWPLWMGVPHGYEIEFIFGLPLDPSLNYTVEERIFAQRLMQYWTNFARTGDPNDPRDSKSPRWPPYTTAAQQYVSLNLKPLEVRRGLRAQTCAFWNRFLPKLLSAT
Protocol: The derivatives, under question and physostigmine suspended in 2% carboxymethylcellulose, were orally administered to groups of Wistar male rats (average weight about 250 g).
On the base of the obtained results in preliminary trials, the doses utilized for the comparison were comprised beween 0.2 and 0.4 mg/kg for physostigmine and between 1.5 and 4 mg/kg for the eseroline derivatives under question.
The groups of treated rats were sacrificed after 20, 60, and 120 minutes and the blood and the brain of each animal were immediately cooled to 0°C and maintained at this temperature during the successive treatments.
The acetylcholinesterase activity (AchE) was determined by using the Ellman et al's quick colorimetric method (Biochem. Pharmacol., 7, 88, 1961) and it was expressed as enzymatic inhibition percentage.

Row | Compound | increase in motor activity (stimulating effect) [1] [%] | increase of the spontaneous motility [2] | LD50 in the mouse (mouse [3]) | anticholinesterase effect with respect to the succinylcholine curarizing action [4] | reduction of spontaneous motility (mouse [5]; oral, starting from minimal doses of 3.5-5 mg/kg, on average) [%] | minimal doses causing a marked reduction of spontaneous motility (mouse [5]; orally administered) [mg/kg] | inhibitory activity of the acetylcholinesterase [6]
1 | CN1[C@@H]2C[C@@H](OC(=O)[C@H](CO)c3ccccc3)C[C@H]1[C@@H]1O[C@@H]12 [scopolamine, reference compound] | 100 | 80-100% | – | – | – | – | –
2 | eseroline L-prolylpyrrolidinamide [MGT2] | – | – | 342,2 ± 11,16 mg/kg | the same anticholinesterase effect | ~-39 | 3.5 to 5 | evident dose dipendent and reversible inhibitory activity
